According to patent publication US20240180895A1, “USE OF KAPPA OPIOID RECEPTOR AGONISTS TO TREAT CARDIOVASCULAR DISEASE” (Board of Supervisors of Louisiana State University and …, priority 2021, published 2024):

Legend:
Type in all cases: in vivo, rat
[1] = tested on: Sprague-Dawley rats; experiment: Prevention of diuretic resistance to once daily furosemide by difelikefalin, 24-hour urine (FIG. 14); details: difelikefalin 20 μg/kg IP added to furosemide 10 mg/kg once daily
Description: (§1) Male Sprague-Dawley rats were placed in individual metabolic cages in a room with 12-hour automatic light on/off control and allowed tap water and rodent chow ad libitum. Over the next two (2) days (control period), rats were administered vehicle (5% NaOH; 1 M PBS, IP) in the morning (9:00 am) and urine was then collected for 24-hours.

[2] = tested on: Sprague-Dawley rats placed on a low-salt diet; experiment: Reversal of furosemide diuretic resistance by difelikefalin in rats on a low sodium diet (FIG. 16); details: difelikefalin 20 μg/kg IP added on days 13-17, low sodium diet
Description: as §1, with “water. For these studies, rats were placed on a low-salt diet (0.1% NaCl) for one week prior to” for “water”, “throughout” for “rodent chow ad libitum. Over”, “experimental protocol. […] For the first” for “next”, “5-hours.” for “24-hours.”

[3] = tested on: conscious Sprague-Dawley rats; experiment: Acute cardiovascular and renal excretory studies with ICV or IV norBNI pretreatment (Example 4); details: for Urine osmolality / Urine potassium concentration [K+] / Urine sodium concentration [Na+]: total 90-min urine
Description: Male Sprague-Dawley rats (Envigo Labs, Indianapolis, IN) were individually housed, allowed tap water and standard rodent diet ad libitum, and kept under a 12-hour light-dark cycle. Rats used in these experiments weighed between 300 and 350 grams and were randomly assigned to experimental groups. All procedures were conducted in accordance with the National Institutes of Health guidelines for the care and use of animals and approved by the Louisiana State University Health Sciences Center Institutional Animal Care and Use Committee.
Aseptic technique was adhered to for all surgeries and detailed surgical methods were followed as previously described.^14 Briefly, 3-5 days before experimentation, rats requiring central ventricle access for administration of drug/vehicle into the brain were anesthetized with ketamine and xylazine and a stainless-steel cannula was stereotaxically implanted into the right lateral cerebral ventricle.^14
On the morning of the experiment, rats were anesthetized and maintained with inhaled 2% isoflurane, and polyethylene catheters were surgically placed into the left femoral artery, left femoral vein, and urinary bladder.^15.16 Following surgery, rats were placed in an elevated restrainer for recovery and collection of urine from an indwelling bladder catheter.^15 After completion of experimental protocols, rats were anesthetized with isoflurane and decapitated.
During stabilization of cardiovascular and renal excretory parameters, rats received an isotonic saline infusion (55 μl/min), which lasted throughout the duration of the experiment. To record mean arterial pressure (MAP) and heart rate (HR), arterial catheters were connected to a pressure transducer (MLT0670, ADInstruments, Sydney, Australia), which was connected to Powerlab 8/30 (ADInstruments) and visualized using LabChart software (v8.1.5; ADInstruments). After one hour of recovery from surgery, rats were pretreated with the KOR antagonist norBNI or isotonic saline vehicle through either an intracerebroventricular (ICV) catheter or intravenous (IV) catheter. […] Next, drug or vehicle (isotonic saline) was injected into the femoral vein and urine samples were collected every 10 minutes during a 90-minute experimental period. The following drug concentrations were used: nalfurafine 5 μg/kg, difelikefalin 10 μg/kg, norBNI 30 mg/kg (IV), norBNI 1 μg/5 μL (ICV). All groups are n=6. Urine sodium and potassium were measured using a flame photometer (model 943; Instrumentation Laboratories, Lexington, MA). Urine volume was measured gravimetrically, and urine osmolality was measured using a vapor pressure osmometer (model 5600; WESCOR, Logan, UT).
All results are expressed as mean±SEM. For determining statistically different changes at time points within a treatment group, means were compared to the control value using 2-way ANOVA with repeated measures and a post hoc Dunnett test following confirmation of a significant F value. For statistically different changes at individual time points between treatment groups, mean values were compared using 2-way ANOVA with repeated measures and a post hoc Sidak test following confirmation of a significant/value. For means between groups for total urine output, urine sodium concentration, urine potassium concentration, and urine osmolality, a Student/test was used. Statistical significance was characterized as P<0.05 and statistics were performed on Prism 7.05 software (GraphPad Software, Inc, San Diego, CA).

[4] = tested on: conscious Sprague-Dawley rats; experiment: Metabolic cage renal excretory studies, oral gavage (Example 3); details: oral gavage, mean±SEM; for Potassium concentration [K+] in cumulative urine / Sodium concentration [Na+] in cumulative urine: cumulative 5-hour urine, same doses; for Total urine output: cumulative urine of 5-hour protocol, nalfurafine 150 μg kg−1, furosemide 50 mg kg−1, HCTZ 5 mg kg−1, amiloride 5 mg kg−1, n=6
Description: (§2) Animals: Male Sprague-Dawley (SD) rats (Envigo Labs, Indianapolis, IN), 300-350 g, were individually housed under a 12 h light-dark cycle and allowed tap water and standard rodent diet ad libitum. Rats were randomly assigned to experimental groups for all acute and subacute studies. All procedures were approved by the Louisiana State University Health Sciences Center Institutional Animal Care and Use Committee and conducted in accordance with the National Institutes of Health guidelines for the care and use of animals.
Metabolic Cage Renal Excretory Studies: Rats were placed in metabolic cages (model 18cv, Fenco, Cataumet, MA) for 2 hours to allow for acclimation and voiding of residual urine. Following the acclimation period, rats were volume loaded with 20 cc kg^−1 drug or vehicle (isotonic saline) via oral gavage. Urines were collected each hour over a 5-hour period. Following completion of the study rats were returned to their home cages. […] These points are marked on the figures with number of measurements in parentheses.
(§3) Experimental Design and Analysis: All results are expressed as mean±SEM. […] Means between groups for total urine output, Na^+ concentration, K^+ concentration, and urine osmolality were compared using a Student's t-test. Statistical significance was characterized as P<0.05. Statistics were carried out using Prism 7.05 software (GraphPad Software, Inc., San Diego, CA) and IBM SPSS Statistics (IBM, Armonk, NY).

[5] = tested on: conscious Sprague-Dawley rats; experiment: Acute cardiovascular and renal excretory studies, i.v. bolus (Example 3); details: for Effect on heart rate (HR) / Effect on MAP / Potassium concentration [K+] in cumulative urine / Sodium concentration [Na+] in cumulative urine / Urine osmolality / Total urine output: i.v. bolus; for Effect on heart rate (HR) / Effect on MAP: 90-min protocol; for Effect on MAP: diuretic alone; for Potassium concentration [K+] in cumulative urine / Sodium concentration [Na+] in cumulative urine / Urine osmolality: cumulative 90-min urine, same doses; for Potassium concentration [K+] in cumulative urine / Sodium concentration [Na+] in cumulative urine / Urine osmolality / Total urine output: mean±SEM; for Total urine output: cumulative urine of 90-min protocol, nalfurafine 5 μg kg−1, furosemide 7.5 mg kg−1, HCTZ 2.5 mg kg−1, amiloride 2 mg kg−1, n=6
Description: as §2
Surgical Procedures: Aseptic technique was followed for all surgical procedures. On the morning of the experiment, rats were anesthetized with and maintained under inhaled 2% isoflurane, and polyethylene catheters (PE50; BD Diagnostics, Sparks, MD) were surgically inserted into the left femoral vein and left femoral artery for the infusion of saline and/or drug administration and the recording of arterial blood pressure, respectively. Subsequently, a suprapubic incision was made and a flanged polyethylene catheter (PE240; BD Diagnostics, Sparks, MD) was inserted into the bladder, exteriorized, and sutured to surrounding muscle and skin. Rats were then placed in an elevated restrainer (Krowicki & Kapusta, 2011) to recover from surgery and allow collection of urine. When acute experimental protocols were completed, rats were anesthetized via isoflurane and decapitated.
Acute Cardiovascular and Renal Excretory Studies: Following surgery, rats received an i.v. infusion of isotonic saline at 55 μL min^−1 throughout the duration of the experiment and were allowed 4-6 hours to recover from anesthesia. Arterial catheters were connected to a pressure transducer (MLT0670, ADInstruments, Sydney, Australia), which was connected to Powerlab 8/30 (ADInstruments) for recording of pulsatile and mean arterial blood pressure (MAP) and heart rate (HR). Blood pressure and HR were visualized using LabChart software (v8.1.5; ADInstruments). […] Following this control period, drug or vehicle (isotonic saline) was injected into the femoral vein catheter at a volume of 2 cc kg^−1, and urines were collected in 10 minute periods for a span of 90 minutes. […] All groups are n=6. Urine volume was measured gravimetrically, urine sodium and potassium concentrations were measured using flame photometry (model 943; Instrumentation Laboratories, Lexington, MA), and urine osmolality was measured using a vapor pressure osmometer (model 5600; WESCOR, Logan, UT).
as §3

[6] = ICV norBNI (1 μg/5 μL) pretreatment
[7] = IV norBNI (30 mg/kg) pretreatment
[8] = difelikefalin 10 μg/kg IV, no pretreatment

With Difelikefalin the “Effect on diuretic resistance to furosemide” value [1] was “prevents the diuretic resistance”, the “Effect on established diuretic resistance to furosemide” value [2] was “rescues the established diuretic resistance” and the “Effect on HR” value [3, 6] was “No changes in HR”. The “Effect on MAP” value [3, 6] was “no significant change in MAP”, the Total urine output ([3]; ICV norBNI (1 μg/5 μL) pretreatment, difelikefalin 10 μg/kg or nalfurafine 5 μg/kg IV, 90 min) was 5.49 ± 0.75 mL and the Urine osmolality [3, 6] was 280 ± 26.99 mmol/kg. The “Urine potassium concentration [K+]” value [3, 6] was 13.63±3.05 μeq/mL, the “Urine sodium concentration [Na+]” value [3, 6] was 47.92±8.30 μeq/mL and the Total urine output ([3]; ICV vehicle (5 μL) pretreatment, difelikefalin 10 μg/kg or nalfurafine 5 μg/kg IV, 90 min) was 9.64 ± 0.52 mL. For the same molecule, the “Effect on HR” value ([3]; ICV vehicle pretreatment) was “No changes in HR”, the “MAP peak Δ” value ([3]; ICV vehicle pretreatment, peak at 60 min (difelikefalin), 50 min (nalfurafine)) was −4 mmHg and the Urine osmolality ([3]; ICV vehicle pretreatment) was 170.7 ± 12.04 mmol/kg. For the same molecule, the “Urine potassium concentration [K+]” value ([3]; ICV vehicle pretreatment) was 8.16±1.81 μeq/mL, the “Urine sodium concentration [Na+]” value ([3]; ICV vehicle pretreatment) was 45.24±6.67 μeq/mL and the “Effect on HR” value [3, 7] was “slight but statistically significant increases in HR”. The “MAP peak Δ” value ([3]; IV norBNI (30 mg/kg) pretreatment, 80-minute peak for difelikefalin) was −4.5 mmHg, the Total urine output ([3]; IV norBNI (30 mg/kg) pretreatment, difelikefalin 10 μg/kg or nalfurafine 5 μg/kg IV, 90 min) was 4.44 ± 0.28 mL and the Urine osmolality [3, 7] was 515 ± 35.8 mmol/kg. For the same molecule, the “Urine potassium concentration [K+]” value [3, 7] was 27.78±5.35 μeq/mL, the “Urine sodium concentration [Na+]” value [3, 7] was 140.4±10.7 μeq/mL and the Total urine output ([3]; IV vehicle (2 cc/kg) pretreatment, difelikefalin 10 μg/kg or nalfurafine 5 μg/kg IV, 90 min) was 9.49 ± 0.30 mL. For the same molecule, the “Effect on HR” value ([3]; IV vehicle pretreatment) was “slight but statistically significant increases in HR”, the “MAP peak Δ” value ([3]; IV vehicle pretreatment, peak at 70 min (difelikefalin), 60 min (nalfurafine)) was −11 mmHg and the Urine osmolality ([3]; IV vehicle pretreatment) was 161.2 ± 9.98 mmol/kg. For the same molecule, the “Urine potassium concentration [K+]” value ([3]; IV vehicle pretreatment) was 5.66±1.04 μeq/mL, the “Urine sodium concentration [Na+]” value ([3]; IV vehicle pretreatment) was 38.93±4.01 μeq/mL and the “Duration of the increase in urine flow rate” value [3, 8] was 50 min. For the same molecule, the “Effect on HR” value [3, 8] was “Neither IV saline nor difelikefalin altered HR”, the “Time of peak diuresis” value [3, 8] was 30 min and the Total urine output ([3]; difelikefalin 10 μg/kg IV, no pretreatment (FIG. 9B), 90-minute period, mean±SEM, n=6) was 10.62 ± 0.47 mL. For the same molecule, the Urine osmolality [3, 8] was 169.70 ± 13.89 mmol/kg, the “Urine potassium concentration [K+]” value [3, 8] was 5.53±0.63 μeq/mL and the “Urine sodium concentration [Na+]” value [3, 8] was 32.22±6.48 μeq/mL.

With NS(=O)(=O)c1cc2c(cc1Cl)NCNS2(=O)=O [HCTZ, hydrochlorothiazide] the “Potassium concentration [K+] in cumulative urine” value [4] was 26.50±1.91 μeq ml^−1, the “Sodium concentration [Na+] in cumulative urine” value [4] was 119.70±3.04 μeq ml^−1 and the Total urine output [4] was 14.55 ± 0.57 mL. For the same molecule, the “Duration of the increase in urine flow rate above control” value ([5]; after i.v. bolus) was “returned to baseline levels by 50-min”, the “Effect on heart rate (HR)” value [5] was “did not produce any changes in MAP or HR” and the “Effect on MAP” value [5] was “did not produce any changes in MAP or HR”. The “Potassium concentration [K+] in cumulative urine” value [5] was 14.76±3.12 μeq ml^−1, the “Sodium concentration [Na+] in cumulative urine” value [5] was 155.6±8.04 μeq ml^−1 and the Urine osmolality [5] was 439.3 ± 15.94 mmol/kg. The Total urine output [5] was 9.22 ± 0.50 mL.

With Oc1ccc2c3c1O[C@H]1c4[nH]c5c(c4C[C@@]4(O)[C@@H](C2)N(CC2CC2)CC[C@]314)C[C@@]1(O)[C@H]2Cc3ccc(O)c4c3[C@@]1(CCN2CC1CC1)[C@H]5O4 [norBNI, norbinaltorphimine] the “Effect of norBNI pretreatment on the diuresis” value (“Effect of norBNI pretreatment” below) ([3]; norBNI 1 μg/5 μL ICV before difelikefalin 10 μg/kg IV) was “significantly attenuated the peak increase and duration of the difelikefalin-induced diuresis”, the “Effect of norBNI pretreatment” value ([3]; norBNI 1 μg/5 μL ICV before nalfurafine 5 μg/kg IV) was “markedly attenuated” and the “Effect of norBNI pretreatment” value ([3]; norBNI 30 mg/kg IV before difelikefalin 10 μg/kg IV) was “completely blocked the diuresis”. For the same molecule, the “Effect of norBNI pretreatment” value ([3]; norBNI 30 mg/kg IV before nalfurafine 5 μg/kg IV) was “nearly abolished”.

With N=C(N)NC(=O)c1nc(Cl)c(N)nc1N [amiloride] the “Potassium concentration [K+] in cumulative urine” value [4] was 4.02±0.54 μeq ml^−1, the “Sodium concentration [Na+] in cumulative urine” value [4] was 130.9±5.32 μeq ml^−1 and the Total urine output [4] was 8.61 ± 0.63 mL. The “Duration of the increase in urine flow rate above control” value ([5]; after i.v. bolus) was 30 min, the “Time of peak diuresis (urine flow rate)” value ([5]; after i.v. bolus) was 10 min and the “Effect on heart rate (HR)” value [5] was “Heart rate did not change”. For the same molecule, the “Effect on MAP” value [5] was “minimal effects on MAP”, the “Potassium concentration [K+] in cumulative urine” value [5] was 0.85±0.19 μeq ml^−1 and the “Sodium concentration [Na+] in cumulative urine” value [5] was 137.60±6.01 μeq ml^−1. It also gave a Urine osmolality [5] of 398.3 ± 18.05 mmol/kg and a Total urine output [5] of 8.42 ± 0.40 mL.
